Results taken from paper PMC11784839, “Monoaminergic neurotransmitters are bimodal effectors of tau aggregation” (Science Advances, 2025).

Biological target: tau (Homo sapiens, UniProt P10636)
Assay: MCE Phenols Library screening, tau biosensor cell seeding assay (AvZ)
Assay type: cell-based
Details: for Z repl 1 / Z Repl 2: Z score; for Z repl 1 / raw data 1: replicate 1; for Z Repl 2 / raw data 2: replicate 2; for AvZ (average z score of seeding, SDs from the mean level of seeding): 10 μM phenol in cell cultures, AD brain homogenate preincubated 16 hours, two biological replicates, positive = catalyzes seeding, negative = inhibits
[1] = average Z score of the two replicates, MCE Phenols Library screen
[2] = average puncta of the two replicates
[3] = average Z score of the two replicates, tau seeding
[4] = average Z score of two replicates, Phenols Library screen

Chain of tau (P10636 623-695 limits assumed): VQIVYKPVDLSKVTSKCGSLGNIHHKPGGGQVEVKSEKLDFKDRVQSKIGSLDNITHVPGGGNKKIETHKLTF

| Z repl 1 | Z Repl 2 | av Z [1] | av puncta [2] | raw data 1 (puncta) | raw data 2 (puncta) | av Z [3] | av puncta (average of raw data 1 and 2) | AvZ (average z score of seeding, SDs from the mean level of seeding) | av Z [4] | Compound | raw data 1 (raw puncta) | raw data 2 (raw puncta) | av Z (average Z score of the two replicates, tau biosensor seeding, MCE Phenols Library screen) |
| --- | --- | --- | --- | --- | --- | --- | --- | --- | --- | --- | --- | --- | --- |
| -0.975 | -0.298 | -0.636 | 12114.4 | 14642.4 | 9586.42 | – | – | – | – | COc1cc(/C=C/c2ccc(O)cc2)cc(OC)c1 [Pterostilbene] | – | – | – |
| 0.183 | 1.024 | – | – | 28541 | 23704.6 | 0.603 | 26122.8 | – | – | C=C(C)[C@H](CC=C(C)C)Cc1c(O)cc(O)c2c1O[C@H](c1ccccc1O)CC2=O [Kushenol A] | – | – | – |
| 0.673 | 0.138 | – | – | 34427 | 14242.8 | 0.406 | 24334.9 | – | – | O=c1c(-c2ccc(O)cc2)coc2cc(O[C@@H]3O[C@H](CO)[C@@H](O)[C@H](O)[C@H]3O)cc(O)c12 [Genistin] | – | – | – |
| -0.079 | -0.247 | – | – | 25406.2 | 10124.2 | – | 17765.2 | – | -0.163 | COc1c(O[C@@H]2O[C@H](CO)[C@@H](O)[C@H](O)[C@H]2O)cc2oc(-c3ccc(O)cc3)cc(=O)c2c1O [Homoplantaginin] | – | – | – |
| -0.23 | 0.069 | – | – | 23582.4 | 13501.7 | – | 18542 | – | -0.081 | COc1c(O)c(C)cc2c1C(=O)c1c(O)cccc1C2=O [Obtusifolin] | – | – | – |
| -0.172 | -0.225 | -0.198 | 17327.7 | – | – | – | – | – | – | COc1ccc(CCC(=O)c2c(O)cc(O[C@@H]3O[C@H](CO)[C@@H](O)[C@H](O)[C@H]3O[C@@H]3O[C@@H](C)[C@H](O)[C@@H](O)[C@H]3O)cc2O)cc1O [Neohesperidin dihydrochalcone] | 24288.2 | 10367.2 | – |
| -1.021 | -0.252 | -0.637 | 12081.4 | 14091.5 | 10071.4 | – | – | – | – | O=C1c2ccccc2C(=O)c2c(O)ccc(O)c21 [Quinizarin] | – | – | – |
| 0.561 | -0.256 | – | – | 33079.8 | 10028.5 | 0.152 | 21554.2 | – | – | COc1cc2ccc(=O)oc2c(O)c1OC [Fraxidin] | – | – | – |
| -0.966 | -0.652 | -0.809 | – | 14754.3 | 5799.06 | – | 10276.7 | – | – | O=c1cc(-c2ccccc2)oc2c(O)c(O)cc(O)c12 [Norwogonin] | – | – | – |
| -0.561 | -0.884 | -0.722 | 11471.3 | 19618.8 | 3323.85 | – | – | – | – | O=c1c(O)c(-c2ccc(O)c(O)c2)oc2c(O[C@@H]3O[C@H](CO)[C@@H](O)[C@H](O)[C@H]3O)c(O)cc(O)c12 [Gossypin] | – | – | – |
| 0.429 | -0.406 | – | – | 31503 | 8429.95 | – | 19966.5 | – | 0.012 | COc1cc([C@@H]2Oc3c(O)cc([C@H]4Oc5cc(O)cc(O)c5C(=O)[C@@H]4O)cc3[C@H]2CO)ccc1O [Silychristin] | – | – | – |

Second part, the compound before the results:

| Compound | Z repl 1 | Z Repl 2 | av Z [1] | av puncta [2] | raw data 1 (puncta) | raw data 2 (puncta) | av Z [3] | av puncta (average of raw data 1 and 2) | AvZ (average z score of seeding, SDs from the mean level of seeding) | av Z [4] | raw data 1 (raw puncta) | raw data 2 (raw puncta) | av Z (average Z score of the two replicates, tau biosensor seeding, MCE Phenols Library screen) |
| --- | --- | --- | --- | --- | --- | --- | --- | --- | --- | --- | --- | --- | --- |
| Oc1cc(O)c2c(c1)O[C@H](c1cc(O)c(O)c(O)c1)[C@H](O)C2 [(-)-Epigallocatechin] | -0.424 | -0.047 | -0.236 | 16761.1 | – | – | – | – | – | – | 21261.4 | 12260.9 | – |
| O=c1cc(-c2ccc(O)cc2)oc2cc(O[C@@H]3O[C@H](CO)[C@@H](O)[C@H](O)[C@H]3O[C@@H]3OC[C@](O)(CO)[C@H]3O)cc(O)c12 [Apiin] | 1.204 | 0.234 | – | – | 40800.8 | 15263.6 | 0.719 | 28032.2 | – | – | – | – | – |
| Oc1c(Br)cccc1Br [2,6-Dibromophenol] | -0.611 | 0.25 | – | – | 19019.6 | 15439.4 | – | 17229.5 | -0.18 | – | – | – | – |
| CCC1(O)C(=O)OCc2c1cc1n(c2=O)Cc2cc3cc(O)ccc3nc2-1 (racemic) [(±)-10-Hydroxycamptothecin] | 2.809 | 1.992 | – | – | 60066.9 | 34041 | – | 47054 | – | – | – | – | 2.4 |
| O=C1C[C@@H](c2ccc(O)c(O)c2)Oc2c1ccc(O[C@@H]1O[C@H](CO)[C@@H](O)[C@H](O)[C@H]1O)c2O [Flavanomarein] | -0.895 | -0.498 | -0.697 | 11525.3 | 15599.3 | 7451.23 | – | – | – | – | – | – | – |
| Medicarpin | -0.987 | -0.112 | -0.55 | 13032.4 | 14494.9 | 11569.9 | – | – | – | – | – | – | – |
| C[C@@H]1O[C@@H](O[C@@H]2[C@@H](O)[C@H](O)[C@@H](CO)O[C@H]2c2c(O)cc(O)c3c(=O)cc(-c4ccc(O)cc4)oc23)[C@H](O)[C@H](O)[C@H]1O [Vitexin-2"-O-rhamnoside] | 0.246 | -0.753 | -0.253 | 17015.1 | – | – | – | – | – | – | 29301.6 | 4728.59 | – |
| O=C1c2c(O)cc(O)cc2O[C@H](c2ccc(O)cc2)[C@H]1O [Dihydrokaempferol] | -0.147 | 0.084 | – | – | 24585.9 | 13668.2 | – | 19127 | – | -0.031 | – | – | – |
| O=Cc1c[nH]c2cccc(O)c12 [4-Hydroxy-1H-indole-3-carbaldehyde] | 0.51 | -0.086 | – | – | 32475.1 | 11852.6 | – | 22163.8 | 0.212 | – | – | – | – |
| Cl.NCC(O)c1ccc(O)cc1 (stereo not drawn) [Octopamine (hydrochloride)] | -0.187 | 0.177 | – | – | 24099.8 | 14652.9 | – | 19376.3 | -0.005 | – | – | – | – |
| COc1cc(CC(C)C(C)Cc2ccc(O)c(OC)c2)ccc1O (stereo not drawn) [Dihydroguaiaretic acid] | -0.958 | -0.625 | -0.792 | – | 14843.2 | 6088.67 | – | 10465.9 | – | – | – | – | – |
| COc1cc(-c2coc3c([C@@H]4O[C@H](CO)[C@@H](O)[C@H](O)[C@H]4O)c(O)ccc3c2=O)ccc1O [3'-Methoxypuerarin] | 0.567 | -0.096 | – | – | 33160 | 11744.3 | 0.236 | 22452.2 | – | – | – | – | – |
| O=C(O)[C@H]1O[C@@H](Oc2cc(O)c3c(=O)cc(-c4ccccc4)oc3c2)[C@H](O)[C@@H](O)[C@@H]1O [Chrysin-7-O-glucuronide] | 0.79 | 0.073 | – | – | 35829.5 | 13544.8 | 0.431 | 24687.2 | – | – | – | – | – |
| O=C(O)CCc1cccc(O)c1 [3-(3-Hydroxyphenyl)propionic acid] | 1.121 | 1.553 | – | – | 39805 | 29350.4 | – | 34577.7 | 1.337 | – | – | – | – |
| Cc1cc(O)cc(C)c1O [2,6-Dimethylhydroquinone] | 0.44 | -0.434 | – | – | 31637.3 | 8126.32 | – | 19881.8 | 0.003 | – | – | – | – |
| CCCC(=O)c1c(O)c(Cc2c(O)c(Cc3c(O)c(C)c(OC)c(C(=O)CCC)c3O)c(O)c(C(=O)[C@@H](C)CC)c2O)c(O)c(C)c1OC [Agrimol B] | -1.539 | -0.722 | -1.13 | – | 7875.9 | 5053.37 | – | 6464.64 | – | – | – | – | – |
| CN(C)[C@@H]1C(O)=C(C(N)=O)C(=O)[C@@]2(O)C(O)=C3C(=O)c4c(O)cccc4[C@@](C)(O)[C@H]3C[C@@H]12.Cl [Tetracycline (hydrochloride)] | 0.657 | 0.47 | – | – | 34234.2 | 17786.4 | 0.563 | 26010.3 | – | – | – | – | – |
| O=C(O)c1ccc(O)c(O)c1O [2,3,4-Trihydroxybenzoic acid] | -0.335 | -0.39 | – | 15461.1 | – | – | – | – | -0.363 | – | 22324.8 | 8597.33 | – |
| COc1ccc(-c2cc(=O)c3c(O)cc(O)cc3o2)cc1 [Acacetin] | -0.027 | -0.222 | – | – | 26028.3 | 10394.7 | – | 18211.5 | – | -0.124 | – | – | – |
| COc1c(O[C@@H]2O[C@H](CO)[C@@H](O)[C@H](O)[C@H]2O)cc2c(c1O)C(=O)c1c(cc(C)c(O)c1OC)C2=O [Aurantio-obtusin ?-D-glucoside] | -0.961 | -0.271 | -0.616 | 12342.8 | 14810.1 | 9875.55 | – | – | – | – | – | – | – |
| Cc1cc(O)c2c(c1)C(=O)c1cc(O)cc(O)c1C2=O [Emodin] | 0.139 | -0.692 | -0.277 | 16696.4 | – | – | – | – | – | – | 28020.6 | 5372.21 | – |
